IC50 data for 16 compounds are collected here from patent US12060349B2, “Glucosylceramide synthase inhibitors” (Genzyme Corporation, priority 2012, dated 2024).

Read-outs that look alike come from different tables or passages of the source. Some results are limits rather than exact numbers.

One may read the IC50 as the concentration needed to halve the response being measured.

Experiment [1] concerns GM3 expression on the cell surface, B16 mouse melanoma cells. Briefly: cell based phenotypic assay, cell surface GM3 by antibody mediated immunofluorescence, B16 (GM3 B16 IC50). As to conditions: B16 mouse melanoma cells, 50% inhibition of GM3 expression on the cell surface, read-out: GM3 B16 IC50. The method, boiled down: (§1)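 Two melanoma lines, mouse B16 and human C32, were treated and surface GM3 quantified by antibody immunofluorescence for IC50. A parallel viability readout gives the concentration killing 50% of cells, with values over 10 indicating no cell death.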

For experiment [2], the target named is T1, glucosylceramide synthase (Homo sapiens, UniProt Q16739).
T1 construct: Microsomes were isolated from A375 human melanoma cells; endogenous in cells; host or cells: A375 human melanoma cells (microsomal fraction, 100,000 g pellet)
T1 sequence (Q16739 1-394): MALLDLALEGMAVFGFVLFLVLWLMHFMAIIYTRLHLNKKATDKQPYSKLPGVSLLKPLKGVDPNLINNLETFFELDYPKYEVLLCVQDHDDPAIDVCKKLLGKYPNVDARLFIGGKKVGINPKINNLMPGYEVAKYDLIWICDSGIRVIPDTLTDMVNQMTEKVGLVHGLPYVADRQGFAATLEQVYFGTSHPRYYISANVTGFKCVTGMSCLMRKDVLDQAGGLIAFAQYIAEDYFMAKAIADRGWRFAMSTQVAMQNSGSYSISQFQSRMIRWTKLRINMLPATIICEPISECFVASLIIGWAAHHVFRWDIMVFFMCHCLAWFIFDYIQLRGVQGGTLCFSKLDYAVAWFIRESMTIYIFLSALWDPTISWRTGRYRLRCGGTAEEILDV
Put plainly: microsomal assay measuring conversion of ceramide to glucosylceramide by HPLC (GCS IC50). Format: biochemical. As to conditions: concentration causing 50% inhibition of glucosylceramide synthase activity. A digest of the protocol: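 Microsomal preparation assayed for glucosylceramide synthase by direct HPLC measurement of ceramide conversion to glucosylceramide. GCS IC50 is the compound concentration giving 50% inhibition of enzyme activity.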

For another experiment, the system named is C32 human melanoma cells. Put plainly: cell viability in the C32 cell-based assay (Viability, C32 IC50). Conditions: concentration causing 50% cell death, values greater than 10 represent a lack of cell death, read-out: Viability, C32 IC50. The method, boiled down:
as §1

The next experiment has as its system B16 mouse melanoma cells. Put plainly: cell viability in the B16 cell-based assay (Viability, B16 IC50). As to conditions: concentration causing 50% cell death, values greater than 10 represent a lack of cell death, read-out: Viability, B16 IC50. The method, boiled down: as §1
Experiment [3] concerns GM3 expression on the cell surface, C32 human melanoma cells. Put plainly: cell based phenotypic assay, cell surface GM3 by antibody mediated immunofluorescence, C32 (GM3 C32 IC50). As to conditions: C32 human melanoma cells, 50% inhibition of GM3 expression on the cell surface, read-out: GM3 C32 IC50. The method, boiled down:
as §1

`CCC1(NC(=O)NC(C)(C)c2ccc(-c3ccc(S(C)(=O)=O)cc3)cc2)CN2CCC1CC2` (centres unmarked) [Example 236, 1-(3-Ethylquinuclidin-3-yl)-3-(2-(4′-(methylsulfonyl)-[1,1′-biphenyl]-4-yl)propan-2-yl)urea]: the IC50 is 0.0744 µM in experiment [1] (Mus musculus); 0.0538 µM in experiment [2]; not below 10 µM with C32 human melanoma cells (Homo sapiens, C32, C32 cells); not below 10 µM in the experiment with B16 mouse melanoma cells (Mus musculus, B16, B16 cells); 0.00946 µM in experiment [3] (Homo sapiens).
In the case of `CNC(=O)c1ccc(Oc2ccc(C(C)(C)NC(=O)NC3(C)CN4CCC3CC4)cc2)cc1` (centres unmarked) [Example 293, N-Methyl-4-(4-(2-(3-(3-methylquinuclidin-3-yl)ureido)propan-2-yl)phenoxy)benzamide], the IC50 in experiment [1] (Mus musculus) is 5.37 µM; in experiment [2], 0.186 µM; in the experiment on C32 human melanoma cells (Homo sapiens, C32, C32 cells), 1 µM; with B16 mouse melanoma cells (Mus musculus, B16, B16 cells), not below 10 µM; in experiment [3] (Homo sapiens) it was 0.046 µM.
Take `CCCC1(NC(=O)NC(C)(C)c2ccc(-c3ccc(S(=O)(=O)CCCOC)cc3)cc2)CN2CCC1CC2` (centres unmarked) [Example 244, 1-(2-(4′-((3-Methoxypropyl)sulfonyl)-[1,1′-biphenyl]-4-yl)propan-2-yl)-3-(3-propylquinuclidin-3-yl)urea]: the IC50 is 0.0341 µM in experiment [1] (Mus musculus); 0.0371 µM in experiment [2]; 3.16 µM in the experiment on C32 human melanoma cells (Homo sapiens, C32, C32 cells); not below 10 µM with B16 mouse melanoma cells (Mus musculus, B16, B16 cells); 0.00699 µM in experiment [3] (Homo sapiens).
On to `COCCOc1cccc(-c2ccc(C(C)(C)NC(=O)OC3CCN4CCC3CC4)cc2)c1` (centres unmarked) [Example 168, 1-Azabicyclo[3.2.2]nonan-4-yl (2-(3′-(2-methoxyethoxy)-[1,1′-biphenyl]-4-yl)propan-2-yl)carbamate], for which the concentration for half-maximal inhibition (IC50) in experiment [1] (Mus musculus) was 0.0793 µM; in experiment [2] it was 0.00556 µM; in the experiment on C32 human melanoma cells (Homo sapiens, C32, C32 cells), 1 µM; in the experiment with B16 mouse melanoma cells (Mus musculus, B16, B16 cells), not below 10 µM; in experiment [3] (Homo sapiens), 0.00334 µM.
For `COCCOCc1ccc(-c2nc(N3CCC(F)(C(=O)NC4(C)CCN5CCC4CC5)CC3)ncc2F)cc1` (single isomer, unassigned) [Example 79, 4-Fluoro-1-(5-fluoro-4-(4-((2-methoxyethoxy)methyl)phenyl)pyrimidin-2-yl)-N-(4-methyl-1-azabicyclo[3.2.2]nonan-4-yl)piperidine-4-carboxamide], the IC50 in experiment [1] amounted to 0.109 µM; in experiment [2], 0.0018 µM; in the experiment on C32 human melanoma cells (C32 cells), 0.215 µM; in the experiment on B16 mouse melanoma cells (B16 cells) it was 4.28 µM; in experiment [3] it was 0.000191 µM.
Regarding `CN(C)C(=O)c1ccc(Oc2ccc(C(C)(C)NC(=O)NC3(C)CN4CCC3CC4)cc2)cc1` (centres unmarked) [Example 284, N,N-Dimethyl-4-(4-(2-(3-(3-methylquinuclidin-3-yl)ureido)propan-2-yl)phenoxy)benzamide], the IC50 in experiment [1] (Mus musculus) is 3.78 µM; in experiment [2] it was 0.201 µM; in the experiment with C32 human melanoma cells (Homo sapiens, C32, C32 cells), not below 10 µM; in the experiment on B16 mouse melanoma cells (Mus musculus, B16, B16 cells), not below 10 µM; in experiment [3] (Homo sapiens), 0.0607 µM.
With `CCCC1(NC(=O)NC(C)(C)c2ccc(-c3ccc(S(C)(=O)=O)cc3)cc2)CN2CCC1CC2` (centres unmarked) [Example 237, 1-(2-(4′-(Methylsulfonyl)-[1,1′-biphenyl]-4-yl)propan-2-yl)-3-(3-propylquinuclidin-3-yl)urea], the IC50 in experiment [1] (Mus musculus) is 0.0329 µM; in experiment [2] it was 0.0354 µM; with C32 human melanoma cells (Homo sapiens, C32, C32 cells), not below 10 µM; with B16 mouse melanoma cells (Mus musculus, B16, B16 cells) it was not below 10 µM; in experiment [3] (Homo sapiens) it was 0.00671 µM.
For the compound “N-(2-(4-(4-(Methylcarbamoyl)phenoxy)phenyl)propan-2-yl)-1,4-diazabicyclo[3.2.2]nonane-4-carboxamide [Example 305]”, the IC50 in experiment [1] is 0.299 µM; in experiment [2] it was 0.399 µM; in the experiment with C32 human melanoma cells (C32 cells) it was 1 µM; in the experiment with B16 mouse melanoma cells (B16 cells), not below 10 µM; in experiment [3], 0.0195 µM.
On to `CC(C)(NC(=O)OC1CCN2CCC1CC2)c1ccc(-c2ccc(OCCC3COC3)cc2)cc1` (centres unmarked) [Example 195, 1-Azabicyclo[3.2.2]nonan-4-yl (2-(4′-(2-(oxetan-3-yl)ethoxy)-[1,1′-biphenyl]-4-yl)propan-2-yl)carbamate], for which the IC50 in experiment [1] (Mus musculus) is 0.0948 µM; in experiment [2], 0.00567 µM; in the experiment with C32 human melanoma cells (Homo sapiens, C32, C32 cells), 0.1 µM; in the experiment with B16 mouse melanoma cells (Mus musculus, B16, B16 cells), 8.03 µM; in experiment [3] (Homo sapiens), 0.00101 µM.
`CC1(NC(=O)C2CCN(c3nccc(-c4ccc(OCCF)cc4)n3)CC2)CCN2CCC1CC2` (centres unmarked) [Example 71, 1-(4-(4-(2-Fluoroethoxy)phenyl)pyrimidin-2-yl)-N-(4-methyl-1-azabicyclo[3.2.2]nonan-4-yl)piperidine-4-carboxamide]: the half-inhibitory concentration (IC50) in experiment [1] (Mus musculus) came out at 0.00429 µM; in experiment [2] it was 0.00248 µM; with C32 human melanoma cells (Homo sapiens, C32, C32 cells), 0.01 µM; in the experiment on B16 mouse melanoma cells (Mus musculus, B16, B16 cells), 2.15 µM; in experiment [3] (Homo sapiens), 0.000126 µM.
`COCC(C)(C)c1ccc(C#CC(C)(C)NC(=O)NC2(C)CN3CCC2CC3)cc1` (centres unmarked) [Example 339, 1-(4-(4-(1-Methoxy-2-methylpropan-2-yl)phenyl)-2-methylbut-3-yn-2-yl)-3-(3-methylquinuclidin-3-yl)urea]: the IC50 in experiment [1] (Mus musculus) is 0.72 µM; in experiment [2], 0.136 µM; in the experiment with C32 human melanoma cells (Homo sapiens, C32, C32 cells) it was not below 10 µM; in the experiment on B16 mouse melanoma cells (Mus musculus, B16, B16 cells) it was not below 10 µM; in experiment [3] (Homo sapiens) it was 0.0257 µM.
For `COCc1ccc(-c2ccnc(N3CCC(F)(C(=O)NC4(C)CN5CCC4CC5)CC3)n2)cc1` (centres unmarked) [Example 80, 4-Fluoro-1-(4-(4-(methoxymethyl)phenyl)pyrimidin-2-yl)-N-(3-methylquinuclidin-3-yl)piperidine-4-carboxamide], the IC50 in experiment [1] (Mus musculus) was 0.0685 µM; in experiment [2], 0.004 µM; in the experiment with C32 human melanoma cells (Homo sapiens, C32, C32 cells), 0.215 µM; in the experiment on B16 mouse melanoma cells (Mus musculus, B16, B16 cells), not below 10 µM; in experiment [3] (Homo sapiens) it was 0.000525 µM.
Turning to `CC1(NC(=O)C2CCN(c3cccc(-c4ccc(F)cc4)c3)CC2)CCN2CCC1CC2` (centres unmarked) [Example 34, 1-(4′-Fluoro-[1,1′-biphenyl]-3-yl)-N-(4-methyl-1-azabicyclo[3.2.2]nonan-4-yl)piperidine-4-carboxamide], the half-inhibitory concentration (IC50) worked out at 0.079 µM in experiment [1] (Mus musculus); 0.00478 µM in experiment [2]; 0.316 µM with C32 human melanoma cells (Homo sapiens, C32, C32 cells); 4.72 µM in the experiment on B16 mouse melanoma cells (Mus musculus, B16, B16 cells); 0.000872 µM in experiment [3] (Homo sapiens).
Consider `COCCCOc1ccc(-c2nc(C(C)(C)NC(=O)N3CCN4CCC3CC4)cs2)cc1` [Example 342, N-(2-(2-(4-(3-Methoxypropoxy)phenyl)thiazol-4-yl)propan-2-yl)-1,4-diazabicyclo[3.2.2]nonane-4-carboxamide], for which the IC50 was 0.393 µM in experiment [1] (Mus musculus); 0.666 µM in experiment [2]; not below 10 µM in the experiment on C32 human melanoma cells (Homo sapiens, C32, C32 cells); not below 10 µM with B16 mouse melanoma cells (Mus musculus, B16, B16 cells); 0.0851 µM in experiment [3] (Homo sapiens).
For the compound `CC(C)(NC(=O)OC1CCN2CCC1CC2)c1ccc(Oc2ccc(C(=O)N3CCCCC3)cc2)cc1` (centres unmarked) [Example 299, 1-Aza-bicyclo[3.2.2]nonan-4-yl 2-(4-(4-(piperidine-1-carbonyl)phenoxy)phenyl) propan-2-ylcarbamate], the IC50 is 0.192 µM in experiment [1] (Mus musculus); 0.0154 µM in experiment [2]; 1 µM in the experiment with C32 human melanoma cells (Homo sapiens, C32, C32 cells); not below 10 µM with B16 mouse melanoma cells (Mus musculus, B16, B16 cells); 0.00367 µM in experiment [3] (Homo sapiens).
The like results for `CC(C)(NC(=O)NC1(C)CN2CCC1CC2)c1ccc(-c2ccc(C(=O)N3CCOCC3)cc2)cc1` (centres unmarked) [Example 267, 1-(3-Methylquinuclidin-3-yl)-3-(2-(4′-(morpholine-4-carbonyl)biphenyl-4-yl)propan-2-yl)urea] were, in that order, 2.77 µM, 0.363 µM, not below 10 µM, 0.565 µM and 0.119 µM.
